The source of these data is US20220204510A1, “2,3-DIHYDRO-1H-PYRROLIZINE-7-FORMAMIDE DERIVATIVE AND APPLICATION THEREOF” (CHIA TAI TIANQING PHARMACEUTICAL GROUP CO., LTD., priority 2018, published 2022).

SMILES strings stand for the structures. Read-outs that look alike come from different tables or passages of the source.

A short description of data set [1]: Experiment on cytotoxicity (CellTiter-Glo, 3 days). The note with it: 3 days incubation, read-out: 50% cytotoxic concentration (CC50). The format is cell-based. Here is the method: • 1. The compound was diluted with DMSO (dimethyl sulfoxide) in a 3-fold gradient for 9 concentrations, and added into a 96-well plate in duplicate. The compound concentration was 200-fold of the final test concentration. • 2. The cells were rinsed with PBS (phosphate buffered saline) once, added with 0.25% trypsin and digested for about 2-5 min in a 37° C., 5% CO2 incubator. Then the digestion was terminated with a cell culture medium and the cells were dispersed into single cells by pipetting with a pipettor. • 3. The cell density was counted with a cell counter, and adjusted to the required density with the medium. • 4. The cells were added into a 96-well plate that had been added with the compound. The final concentration of DMSO in each well was 0.5%. Wells containing 0.5% DMSO were used as non-toxic negative controls, and wells containing the cell culture medium were used as 100% cytotoxicity controls. Then the cell plate was incubated in a 37° C., 5% CO2 cell incubator for 3 days. • 5. The chemiluminescence signal (RLU, relative chemiluminescence unit) of each well in the cell plate was detected with the cell viability detection kit CellTiter-Glo using the multi-functional microplate reader Envision, with instructions on the kit followed. • 6. The raw data (RLU) were substituted into the following formula to calculate the cell viability of each well (cell viability %): […]
In general terms: Cellular ATP, detected with luciferase, serves as a proxy for viable cell number.

Data set [2] is described as follows: Metabolic stability in liver microsomes. The note with it: mouse, CD-1 mice liver microsomes; for half-life at 1 μM: 1 μM compound, 0.5 mg/mL; for microsomal CLint at 1 μM: read-out: CLint(mic). The format is in vitro ADME. How it is done: (§1) Experimental objective: to evaluate the metabolic stability of the test compound in CD-1 mice and human liver microsomes
(§2) Experimental procedures: first, the test compound (10 mM) was subjected to a two-step dilution, where the compound was diluted to an intermediate concentration of 100 μM with 100% methanol, and the working solution was diluted to 10 μM with a potassium phosphate buffer; eight 96-well incubation plates were prepared, and named T0, T5, T10, T20, T30, T60, Blank and NCF60, respectively; the reaction time points corresponding to the first 6 incubation plates were 0, 5, 10, 20, 30 and 60 min, respectively; for the Blank plate, neither the test compound nor a control compound was added, and for the NCF60 plate, potassium phosphate buffer was used in an incubation of 60 min in place of a NADPH regeneration system solution; 10 μL of the test compound working solution and 80 μL of the microsome working solution (liver microsome protein concentration was 0.625 mg/mL) were added to the T0, T5, T10, T20, T30, T60 and NCF60 plates, while only the microsome working solution was added to the Blank plate, and all the incubation plates were then placed in a 37° C. water bath for pre-incubation for about 10 min; after the pre-incubation, 10 μL of a NADPH regeneration system working solution was added into each sample well of all the plates except the NCF60 plate and T0 plate to start the reaction, and 10 μL of potassium phosphate buffer was added to each well of the NCF60 plate; therefore, in the test compound or control compound samples, the final reaction concentrations of the compound, testosterone, diclofenac and propafenone were 1 μM, the concentration of the liver microsomes was 0.5 mg/mL, and the final concentrations of DMSO and acetonitrile in the reaction system were 0.01% (v/v) and 0.99% (v/v), respectively; after incubation for an appropriate time (such as 5, 10, 20, 30, and 60 min), 300 μL of a stop solution (acetonitrile solution containing 100 ng/mL tolbutamide and 100 ng/mL labetalol) was added to each sample well to stop the reaction; 300 μL of the stop solution and then 10 μL of the NADPH working solution were added to the T0 plate, all the sample plates were shaken and centrifuged in a centrifuge (3220×g) for 20 min, and then 100 μL of supernatant was taken from each well and diluted with 300 μL of pure water for liquid chromatography-tandem mass spectrometry analysis.
Background: Microsomes from liver hold many membrane-bound enzymes, among them those of drug oxidation.

Data set [3] in a line: Metabolic stability in liver microsomes. To be noted: for half-life at 1 μM: Human liver microsomes, 1 μM compound, 0.5 mg/mL; for CLint scaled at 1 μM / microsomal CLint at 1 μM: human liver microsomes; for microsomal CLint at 1 μM: read-out: CLint(mic). It counts as in vitro ADME, human. How it is done: as §1, §2
A short description of data set [4]: Pharmacokinetic study in Balb/c mice by oral administration and intravenous injection. It counts as in vivo. The note with it: mouse, plasma, Balb/c female mice; for bioavailability / AUC / Cmax / Tmax: 3 mg/kg; for bioavailability: PO (3 mpk) vs IV (1 mg/kg), read-out: Bioavailability F; for AUC / Cmax / Tmax: PO (3 mpk); for AUC: read-out: Area under the plasma concentration-time curve AUC; for Cmax: read-out: Peak concentration Cmax; for Tmax: read-out: Peak time Tmax; for Vd / AUC(0-t) / clearance / half-life: IV (1 mg/kg); for Vd: read-out: Apparent volume of distribution Vdss; for AUC(0-t): read-out: Area under the plasma concentration-time curve AUC0-24 h; for clearance: read-out: Clearance CL; for half-life: read-out: Half-life T1/2 (converted). How it is done: Pharmacokinetic study of the test compound in Balb/c mice by oral administration and intravenous injection: The test compound was mixed with a solution containing dimethyl sulfoxide (10%), polyethylene glycol 400 (60%) and water (30%), and the mixture was vortexed and sonicated to prepare a 0.2 mg/mL clear solution, which was filtered through a millipore filter for later use. Balb/c female mice aged 7 to 10 weeks were intravenously injected with the candidate compound solution at a dose of 1 mg/kg. The test compound was mixed with an aqueous solution containing 10% polyoxyethylene stearate, and the mixture was vortexed and sonicated to prepare a 0.3 mg/mL clear solution for later use. Balb/c female mice aged 7 to 10 weeks were orally administered with the candidate compound solution at a dose of 3 mg/kg. Whole-blood was collected and plasma was prepared. Drug concentration was analyzed by LC-MS/MS and pharmacokinetic parameters were calculated with Phoenix WinNonlin software.

Data set [5] in a line: Experiment on the liver-to-blood ratio in Balb/c mice, oral administration. To be noted: oral 3 mg/kg, Balb/c female mice; for AUC0-last: Liver; for Kp / AUC(0-t): mouse; for Kp: liver (tissue homogenate) / plasma, read-out: AUC Ratio (L/P) Liver/plasma exposure ratio; for AUC(0-t): Plasma. It counts as in vivo. Here is the method:
Experiment on the liver-to-blood ratio in Balb/c mice orally administered with the test compound Compound 18 was mixed with an aqueous solution containing 10% polyethylene glycol-15 hydroxystearate, and the mixture was vortexed and sonicated to prepare a 0.3 mg/mL uniform suspension for later use. Balb/c female mice aged 7 to 10 weeks were orally administered with the candidate compound solution at a dose of 3 mg/kg. Whole blood at a certain time point was collected and plasma was prepared. Liver tissues at the corresponding time point were collected to prepare a tissue homogenate. Drug concentration was analyzed by LC-MS/MS and pharmacokinetic parameters were calculated with Phoenix WinNonlin software. Compound 25 was mixed with an aqueous solution containing 10% polyethylene glycol-15 hydroxystearate, and the mixture was vortexed and sonicated to prepare a 0.3 mg/mL clear solution for later use. Balb/c female mice aged 7 to 10 weeks were orally administered with the candidate compound solution at a dose of 3 mg/kg. Whole blood at a certain time point was collected and plasma was prepared. Liver tissues at the corresponding time point were collected to prepare a tissue homogenate. Drug concentration was analyzed by LC-MS/MS and pharmacokinetic parameters were calculated with Phoenix WinNonlin software.

Usually CLint scaled stands for the rate of metabolic loss divided by the concentration. A lower CLint scaled goes with slow turnover. By Tmax is commonly meant the time at which the peak concentration occurs. In the case of `C[C@]1(NC(=O)C(=O)c2c(Cl)c(C(=O)Nc3cc(F)c(F)c(F)c3)c3n2CCC3)CC[C@H](CC(=O)O)CC1` [Compound 25], the CC50 at 3 days in data set [1] was above 50 µM. Also, in data set [2], the CLint scaled at 1 μM is below 38 mL/min/kg, the half-life at 1 μM is above 145 min and the microsomal CLint at 1 μM is below 9.6 µL/min/mg. Besides, in data set [3], the half-life at 1 μM is above 145 min, the CLint scaled at 1 μM was below 8.6 mL/min/kg and the microsomal CLint at 1 μM is below 9.6 µL/min/mg. For the same molecule, in data set [4], the bioavailability is 51%, the AUC was 2.27 µM·h, the Cmax was found to be 1480 nM and the time to peak (Tmax) turned out to be 30 min. For the same molecule, in data set [4], the Vd is 3.1 L/kg, the AUC(0-t) turned out to be 1.49 µM·h, the clearance is 20 mL/min/kg and the half-life is 117 min. In data set [5], the AUC0-last was 86036 nmol·h/kg, the Kp came out at 24.7 and the AUC(0-t) stood at 3.48 µM·h.

Turning to `C[C@]1(NC(=O)C(=O)c2c(Cl)c(C(=O)Nc3ccc(F)c(F)c3)c3n2CCC3)CC[C@H](CC(=O)O)CC1` [Compound 18], the CC50 at 3 days in data set [1] was above 50 µM. Moreover, in data set [2], the intrinsic clearance (CLint scaled) at 1 μM was below 38 mL/min/kg, the half-life at 1 μM is above 145 min and the microsomal CLint at 1 μM was below 9.6 µL/min/mg. In addition, in data set [3], the half-life at 1 μM was above 145 min, the intrinsic metabolic clearance (CLint scaled) at 1 μM was below 8.6 mL/min/kg and the microsomal CLint at 1 μM is below 9.6 µL/min/mg. Moreover, in data set [4], the bioavailability is 271%, the AUC stood at 5.02 µM·h, the Cmax was 1460 nM and the time to peak (Tmax) turned out to be 30 min. In data set [4], the Vd amounted to 8.8 L/kg, the AUC(0-t) is 0.617 µM·h, the clearance came out at 50.1 mL/min/kg and the half-life was 168 min. In addition, in data set [5], the AUC0-last turned out to be 75412 nmol·h/kg, the Kp came to 20.4 and the AUC(0-t) is 3.69 µM·h.
